In US5276058A, “3,4-dihydroxychalcone derivatives” (Nippon Hypox Laboratories Incorporated, priority 1993, dated 1994):

Assays:
[1] = system: ear swelling induced by arachidonic acid; assay: topical anti-inflammatory activity test (arachidonic acid-induced ear swelling); assay type: in vivo, male ICR mice; details: Mus musculus, 1 hour before 1 mg arachidonic acid, read-out: Ratio of inhibition of ear swelling induced by arachidonic acid; for inhibition in vivo at 30 µg/ear: 30 μg/ear; for inhibition in vivo at 10 µg/ear: 10 μg/ear; for inhibition in vivo at 100 µg/ear: 100 μg/ear
Method: The 3,4-dihydroxychalcone derivatives shown in Table 9, as test compounds, were subjected to the following topical anti-inflammatory activity test.
Acetone solutions were prepared from the test compounds. Then, the acetone solution were applied to the right ears of male ICR mice such that the dose of each test compound was 10 μg/ear, 30 μg/ear of 100 μg/ear. One hour after the application, 1 mg of arachidonic acid was applied to each right ear to cause ear swelling.
One hour after the application of the arachidonic acid, the mice were sacrificed by vertebral cervical dislocation, and the right and left ears were taken and separately weighed. The weight of the right ear to which the arachidonic acid had been applied was divided by the weight of the non-treated left ear to obtain a swelling ratio.
The effect of each test compound was shown in the following manner. The relative values of the swelling ratios of individual mice were calculated on an assumption that the average value of the swelling ratios of the solvent control group was taken as 100, and amounts of their decreases were expressed by percentages (inhibition ratios).

cyclooxygenase = target: T1, cyclooxygenase (Ovis aries, UniProt P05979); assay: cyclooxygenase inhibiting activity test; assay type: biochemical; details: sheep seminal vesicle, pH 7.4, prostaglandin E2 formation
T1 construct: containing sheep seminal vesicle; from tissue; host or cells: sheep seminal vesicle
T1 sequence (P05979 25-600): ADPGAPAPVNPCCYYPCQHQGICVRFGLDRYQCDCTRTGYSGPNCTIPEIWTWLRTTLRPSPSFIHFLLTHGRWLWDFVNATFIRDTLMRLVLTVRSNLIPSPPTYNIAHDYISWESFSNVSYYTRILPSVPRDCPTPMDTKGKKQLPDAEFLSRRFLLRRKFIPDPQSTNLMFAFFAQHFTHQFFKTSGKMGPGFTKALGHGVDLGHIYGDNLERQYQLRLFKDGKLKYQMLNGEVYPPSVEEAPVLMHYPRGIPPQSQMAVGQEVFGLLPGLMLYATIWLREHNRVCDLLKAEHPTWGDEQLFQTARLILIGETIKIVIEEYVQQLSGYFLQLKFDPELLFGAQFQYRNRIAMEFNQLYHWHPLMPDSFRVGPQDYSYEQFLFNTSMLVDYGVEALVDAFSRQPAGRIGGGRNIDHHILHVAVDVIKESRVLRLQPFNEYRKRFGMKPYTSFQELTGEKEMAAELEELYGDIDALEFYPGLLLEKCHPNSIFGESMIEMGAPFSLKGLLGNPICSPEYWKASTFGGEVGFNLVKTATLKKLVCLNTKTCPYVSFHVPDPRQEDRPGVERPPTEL
Method: A 50 mM phosphoric acid buffer solution (pH 7.4) containing sheep seminal vesicle, 2 mM of glutathione, 0.6 mM of epinephrine and 80 μM of EDTA-2Na preheated at 37° C. for 2 minutes, and then ^14 C-arachidonic acid was added to the reaction mixture. The mixture was heated for 10 minutes to form prostaglandin E2, and the radiation activity of the formed prostaglandin E2 was taken as cyclooxygenase activity. The 3,4-dihydroxychalcone derivatives shown in Table 10 were selected as test compounds. The cyclooxygenase inhibiting activity of each test compound was evaluated as follows. Each test compound was independently added to the above phosphoric acid buffer solution, and the radiation activity of the formed prostaglandin E2 was measured in the same manner as above. The inhibition ratio of each test compound was determined in comparison with that of the control group, and the value of IC50 was calculated by a conventional method.

[2] = JP,A 63-297847; cited from earlier work
[3] = system: enzymes which are to cause inflammation; details: in vitro; PROSTAGLADINSS (1985, 30 (3) 357); cited from earlier work
[4] = Food Chemistry (1983, 12) 205-212; cited from earlier work
5-lipoxygenase = target: T2, 5-lipoxygenase (Rattus norvegicus, UniProt P12527); assay: 5-lipoxygenase inhibiting activity test (RBL-1 cell homogenate); assay type: biochemical; details: pH 7.4, 37° C., 5-HETE formation
T2 construct: endogenous in cells; host or cells: RBL-1 cell homogenate
T2 sequence (P12527 1-673): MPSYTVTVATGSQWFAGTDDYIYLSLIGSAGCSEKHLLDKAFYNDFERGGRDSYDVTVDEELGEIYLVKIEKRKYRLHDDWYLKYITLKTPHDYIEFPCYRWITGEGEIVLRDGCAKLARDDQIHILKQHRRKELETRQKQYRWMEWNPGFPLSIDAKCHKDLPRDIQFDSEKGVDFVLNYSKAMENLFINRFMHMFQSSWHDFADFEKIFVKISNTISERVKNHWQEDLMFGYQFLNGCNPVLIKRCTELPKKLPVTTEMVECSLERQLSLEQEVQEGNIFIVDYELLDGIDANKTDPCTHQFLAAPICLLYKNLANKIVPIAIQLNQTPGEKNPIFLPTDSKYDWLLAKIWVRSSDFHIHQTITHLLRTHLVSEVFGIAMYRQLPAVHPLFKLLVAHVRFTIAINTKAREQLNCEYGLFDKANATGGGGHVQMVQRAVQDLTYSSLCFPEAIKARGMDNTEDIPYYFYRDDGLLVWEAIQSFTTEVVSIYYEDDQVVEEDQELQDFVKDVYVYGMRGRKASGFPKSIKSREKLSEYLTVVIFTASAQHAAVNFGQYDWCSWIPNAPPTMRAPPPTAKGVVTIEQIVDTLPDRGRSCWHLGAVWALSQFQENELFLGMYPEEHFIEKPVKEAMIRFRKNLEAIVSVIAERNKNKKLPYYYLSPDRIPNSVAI
Method: RBL-1 cell homogenate was suspended in a 50 mM phosphoric acid buffer solution (pH 7.4) containing 2 mM of CaCl2, 0.25 mM of sucrose, 1 mM of EDTA-2Na and glutathione, and the mixture was heated to 37° C. Arachidonic acid was added to the mixture to form 5-HETE (5-hydroxyeicosatetraenonic acid), and the 5-HETE was measured for an amount by a high-performance liquid chromatography.
The 3,4-dihydroxychalcone derivatives shown in Table 11 were selected as test compounds. The 5-lipoxygenase inhibiting activity of each test compound was evaluated as follows. Each test compound was independently added to the above phosphoric acid buffer solution, and the 5-HETE amount was measured in the same manner as above. The inhibition ratio of each test compound was determined in comparison with that of the control group, and the value of IC50 was calculated by a conventional method.

[5] = JP,A 61-76433; cited from earlier work

| IC50 (cyclooxygenase) | Compound | inhibition in vivo at 30 µg/ear [1] | other results |
| --- | --- | --- | --- |
| 156 µM | COc1ccc(C(=O)C=Cc2ccc(O)c(O)c2)c(OC)c1 [Example 2] | 56% | – |
| – | O=C(/C=C/c1ccc(O)c(O)c1)c1cccc(O)c1O [2',3',3,4-tetrahydroxychalcone] | – | anti-inflammatory activity [2]: extensive anti-inflammatory activity |
| 169 µM | O=C(C=Cc1ccc(O)c(O)c1)c1cc(O)ccc1O [Example 3] | 39% | – |
| – | COc1cc(C(=O)C=Cc2ccc(O)c(O)c2)ccc1O [Example 28] | 47% | – |
| 3.2 µM | CCOc1ccc(OC)cc1C(=O)C=Cc1ccc(O)c(O)c1 [Example 15] | 7.4% | – |
| 41.3 µM | COc1ccc(O)c(C(=O)C=Cc2ccc(O)c(O)c2)c1 [Example 6] | 38% | inhibition in vivo at 10 µg/ear [1]: 7.6%; inhibition in vivo at 100 µg/ear [1]: 43% |
| – | O=C(/C=C/c1ccc(O)c(O)c1)c1ccccc1 [3,4-dihydroxychalcone] | – | inhibiting activity against enzymes which are to cause inflammation [3]: inhibiting activity against enzymes which are to cause inflammation; activity to inhibit the oxidation of edible oils [4]: activity to inhibit the oxidation of edible oils |
| – | COc1cc(C(=O)C=Cc2ccc(O)c(O)c2)cc(OC)c1OC [Example 30] | 65% | – |
| 17.1 µM | COc1ccc(OC)c(C(=O)/C=C/c2ccc(O)c(O)c2)c1 [Example 1, 2',5'-dimethoxy-3,4-dihydroxychalcone] | 77% | IC50 (5-lipoxygenase): 0.0078 µM |
| – | CC(C)Oc1ccc(O)c(C(=O)C=Cc2ccc(O)c(O)c2)c1 [Example 8] | 67% | – |
| 15.1 µM | COc1cccc(C(=O)C=Cc2ccc(O)c(O)c2)c1 [Example 20] | 58% | – |
| 829 µM | COc1ccc(C(=O)C=Cc2ccc(O)c(O)c2)cc1OC [Example 29] | 38% | – |
| – | O=C(/C=C/c1ccc(O)c(O)c1)c1ccc(O)cc1O [2',4',3,4-tetrahydroxychalcone] | – | inhibiting activity against enzymes which are to cause inflammation [3]: inhibiting activity against enzymes which are to cause inflammation |
| 210 µM | Cc1ccc(C(=O)C=Cc2ccc(O)c(O)c2)cc1 [Example 18] | 27% | – |
| 64.8 µM | COc1ccc(C(=O)C=Cc2ccc(O)c(O)c2)c(O)c1 [Example 4] | 35% | – |
| 43.7 µM | Cc1ccc(C)c(C(=O)C=Cc2ccc(O)c(O)c2)c1 [Example 26] | 58% | – |
| 40.5 µM | Cc1ccc(C(=O)C=Cc2ccc(O)c(O)c2)c(C)c1 [Example 25] | 43% | – |
| 121 µM | Cc1ccc(O)c(C(=O)C=Cc2ccc(O)c(O)c2)c1 [Example 5] | 52% | inhibition in vivo at 10 µg/ear [1]: 31% |

| IC50 (cyclooxygenase) | Compound | inhibition in vivo at 30 µg/ear [1] | other results |
| --- | --- | --- | --- |
| – | COc1cccc(OC)c1C(=O)C=Cc1ccc(O)c(O)c1 [Example 12] | 8% | – |
| 275 µM | Cc1cc(C)c(C(=O)C=Cc2ccc(O)c(O)c2)c(C)c1 [Example 27] | 47% | – |
| – | CC(C)Oc1ccc(C(=O)C=Cc2ccc(O)c(O)c2)cc1 [Example 22] | 5% | – |
| – | O=C(/C=C/c1ccc(O)c(O)c1)c1ccc(O)cc1 [4',3,4-trihydroxychalcone] | – | inhibiting activity against enzymes which are to cause inflammation [3]: inhibiting activity against enzymes which are to cause inflammation |
| – | O=C(/C=C/c1ccc(O)c(O)c1)c1ccccc1O [2',3,4-trihydroxychalcone] | – | inhibiting activity against enzymes which are to cause inflammation [3]: inhibiting activity against enzymes which are to cause inflammation |
| 129 µM | CCOc1ccc(O)c(C(=O)C=Cc2ccc(O)c(O)c2)c1 [Example 10] | 43% | – |
| – | CCCCOc1ccc(O)c(C(=O)C=Cc2ccc(O)c(O)c2)c1 [Example 9] | 31% | – |
| 35.3 µM | COc1ccccc1C(=O)C=Cc1ccc(O)c(O)c1 [Example 19] | 42% | – |
| 37.3 µM | CC(C)c1ccc(O)c(C(=O)C=Cc2ccc(O)c(O)c2)c1 [Example 7] | 9% | – |
| 29.7 µM | COc1ccc(C)cc1C(=O)C=Cc1ccc(O)c(O)c1 [Example 11] | 32% | – |
| 808 µM | CN(C)c1ccc(C(=O)C=Cc2ccc(O)c(O)c2)cc1 [Example 24] | 21% | – |
| 59.9 µM | COc1ccc(OC(C)C)cc1C(=O)C=Cc1ccc(O)c(O)c1 [Example 14] | 33% | – |
| – | COc1ccc(C(=O)C=Cc2ccc(O)c(O)c2)c(OC)c1OC [3-(3,4-dihydroxyphenyl)-1-(2,3,4-trimethoxyphenyl)-2-propen-1-one] | – | antiallergic activity [5]: antiallergic activity |
| 40.6 µM | CN(C)c1cccc(C(=O)C=Cc2ccc(O)c(O)c2)c1 [Example 23] | 19% | – |
| 26 µM | CCOc1ccc(OC)c(C(=O)C=Cc2ccc(O)c(O)c2)c1 [Example 13] | 13% | – |
| 24.4 µM | CCOc1ccc(OCC)c(C(=O)C=Cc2ccc(O)c(O)c2)c1 [Example 16] | – | inhibition in vivo at 10 µg/ear [1]: 7% |
| 488 µM | COc1ccc(C(=O)C=Cc2ccc(O)c(O)c2)cc1 [Example 21] | – | inhibition in vivo at 10 µg/ear [1]: 45% |
| 71 µM | Cc1cccc(C(=O)C=Cc2ccc(O)c(O)c2)c1 [Example 17] | 28% | inhibition in vivo at 100 µg/ear [1]: 38% |
